# Assay results as given in ChEMBL document CHEMBL1201862, “PubChem BioAssay data set” (2004).
# Active and inactive are the calls of the source.
# How the values were obtained:
# [1] = target: T1, Replicative DNA helicase DnaB (Mycobacterium tuberculosis, UniProt P9WMR3); test: DnaB intein splicing inhibitors, dose response, biochemical, cell-free fluorescence (AID 449749); format: functional
# T1 sequence (P9WMR3 whole entry): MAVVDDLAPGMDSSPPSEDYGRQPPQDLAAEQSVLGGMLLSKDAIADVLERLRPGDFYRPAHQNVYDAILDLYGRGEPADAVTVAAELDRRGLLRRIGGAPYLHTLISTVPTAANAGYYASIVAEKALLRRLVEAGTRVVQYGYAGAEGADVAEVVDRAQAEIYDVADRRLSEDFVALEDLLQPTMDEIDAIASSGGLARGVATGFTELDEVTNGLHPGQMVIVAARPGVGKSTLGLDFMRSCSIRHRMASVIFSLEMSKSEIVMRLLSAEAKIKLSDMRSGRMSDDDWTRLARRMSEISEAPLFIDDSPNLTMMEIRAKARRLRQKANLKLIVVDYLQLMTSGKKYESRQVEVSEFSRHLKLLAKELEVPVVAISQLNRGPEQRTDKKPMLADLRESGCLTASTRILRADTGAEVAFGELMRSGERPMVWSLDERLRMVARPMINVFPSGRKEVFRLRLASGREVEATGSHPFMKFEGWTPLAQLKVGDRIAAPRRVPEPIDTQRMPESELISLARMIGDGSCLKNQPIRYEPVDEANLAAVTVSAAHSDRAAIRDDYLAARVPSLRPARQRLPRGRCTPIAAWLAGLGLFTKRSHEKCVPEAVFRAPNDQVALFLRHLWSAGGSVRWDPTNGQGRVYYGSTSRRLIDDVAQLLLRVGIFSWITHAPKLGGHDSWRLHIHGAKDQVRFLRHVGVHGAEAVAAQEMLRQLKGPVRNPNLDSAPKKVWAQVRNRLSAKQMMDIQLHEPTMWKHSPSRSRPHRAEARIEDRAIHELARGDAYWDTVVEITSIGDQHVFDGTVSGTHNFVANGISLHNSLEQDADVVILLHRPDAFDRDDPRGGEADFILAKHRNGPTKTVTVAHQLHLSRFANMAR
# Protein RecA = target: T2, Protein RecA (Mycobacterium tuberculosis, UniProt P9WHJ3); test: Fluorescence Cell-Free Homogeneous Dose Retest to Identify Inhibitors of RecA-Intein Splicing Activity. [Related pubchem assays (depositor defined):AID2097, AID2223, AID489010, AID492950]; format: functional
# T2 sequence (P9WHJ3 whole entry): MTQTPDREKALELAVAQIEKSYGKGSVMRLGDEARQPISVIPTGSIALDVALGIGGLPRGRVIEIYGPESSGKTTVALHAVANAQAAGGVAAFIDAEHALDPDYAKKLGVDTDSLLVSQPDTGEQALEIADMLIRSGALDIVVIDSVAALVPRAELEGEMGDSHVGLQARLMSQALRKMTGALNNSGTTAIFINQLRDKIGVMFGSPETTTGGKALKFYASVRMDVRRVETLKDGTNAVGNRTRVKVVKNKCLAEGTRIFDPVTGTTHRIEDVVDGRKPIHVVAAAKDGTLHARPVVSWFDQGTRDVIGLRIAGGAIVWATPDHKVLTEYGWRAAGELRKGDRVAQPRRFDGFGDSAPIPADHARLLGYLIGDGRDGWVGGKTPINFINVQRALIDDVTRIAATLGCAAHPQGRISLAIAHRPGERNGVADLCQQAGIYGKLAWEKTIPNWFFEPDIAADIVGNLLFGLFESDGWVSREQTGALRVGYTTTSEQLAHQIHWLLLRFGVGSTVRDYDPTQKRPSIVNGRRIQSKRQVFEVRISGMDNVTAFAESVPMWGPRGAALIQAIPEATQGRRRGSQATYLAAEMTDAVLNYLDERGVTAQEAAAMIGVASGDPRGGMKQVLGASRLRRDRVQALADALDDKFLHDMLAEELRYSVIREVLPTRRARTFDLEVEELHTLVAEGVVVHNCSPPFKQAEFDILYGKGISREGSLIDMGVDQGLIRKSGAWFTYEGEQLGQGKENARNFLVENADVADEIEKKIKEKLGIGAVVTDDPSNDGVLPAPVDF
# [2] = Shn3 3'UTR reporter inhibitors, dose response, cell-based, Clone20 osteoblasts, firefly luciferase, cherry-picked (AID 624132); format: functional;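 also: firefly luciferase luminescence from reporter carrying the Shn3 3'UTR in osteoblasts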
# [3] = HepG2 cell cytotoxicity, dose response, cytotoxicity control for Shn3 inhibitor project, CellTiter-Glo, cherry-picked (AID 624134); format: functional, cell-based
# [4] = control 3'UTR Renilla luciferase suppression, dose response, counter-screen for Shn3 inhibitor project, cell-based, Clone20-Shn3RL, cherry-picked (AID 624133); format: functional
# HEK293 [5] = test: cells; details: Homo sapiens
# HEK293 [6] = test: cells; details: Homo sapiens; remark: listed apart in the source
# Caspase-3 [7] = target: T3, Caspase-3 (Homo sapiens, UniProt P42574); format: functional
# T3 sequence (P42574 whole entry): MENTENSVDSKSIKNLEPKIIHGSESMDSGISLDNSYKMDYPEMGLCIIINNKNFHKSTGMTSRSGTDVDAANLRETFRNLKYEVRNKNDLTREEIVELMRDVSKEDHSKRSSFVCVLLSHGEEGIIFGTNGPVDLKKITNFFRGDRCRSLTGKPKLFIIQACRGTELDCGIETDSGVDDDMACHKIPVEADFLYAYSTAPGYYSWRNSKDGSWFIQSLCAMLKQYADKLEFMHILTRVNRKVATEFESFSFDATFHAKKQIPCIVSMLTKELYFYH
# [8] = target: T4, Sentrin-specific protease 7 (Homo sapiens, UniProt Q9BQF6); format: functional;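 also: Luminescence-based dose-response confirmation of ultra-high-throughput screening hits, measuring inhibition of SENP7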
# T4 sequence (Q9BQF6 whole entry): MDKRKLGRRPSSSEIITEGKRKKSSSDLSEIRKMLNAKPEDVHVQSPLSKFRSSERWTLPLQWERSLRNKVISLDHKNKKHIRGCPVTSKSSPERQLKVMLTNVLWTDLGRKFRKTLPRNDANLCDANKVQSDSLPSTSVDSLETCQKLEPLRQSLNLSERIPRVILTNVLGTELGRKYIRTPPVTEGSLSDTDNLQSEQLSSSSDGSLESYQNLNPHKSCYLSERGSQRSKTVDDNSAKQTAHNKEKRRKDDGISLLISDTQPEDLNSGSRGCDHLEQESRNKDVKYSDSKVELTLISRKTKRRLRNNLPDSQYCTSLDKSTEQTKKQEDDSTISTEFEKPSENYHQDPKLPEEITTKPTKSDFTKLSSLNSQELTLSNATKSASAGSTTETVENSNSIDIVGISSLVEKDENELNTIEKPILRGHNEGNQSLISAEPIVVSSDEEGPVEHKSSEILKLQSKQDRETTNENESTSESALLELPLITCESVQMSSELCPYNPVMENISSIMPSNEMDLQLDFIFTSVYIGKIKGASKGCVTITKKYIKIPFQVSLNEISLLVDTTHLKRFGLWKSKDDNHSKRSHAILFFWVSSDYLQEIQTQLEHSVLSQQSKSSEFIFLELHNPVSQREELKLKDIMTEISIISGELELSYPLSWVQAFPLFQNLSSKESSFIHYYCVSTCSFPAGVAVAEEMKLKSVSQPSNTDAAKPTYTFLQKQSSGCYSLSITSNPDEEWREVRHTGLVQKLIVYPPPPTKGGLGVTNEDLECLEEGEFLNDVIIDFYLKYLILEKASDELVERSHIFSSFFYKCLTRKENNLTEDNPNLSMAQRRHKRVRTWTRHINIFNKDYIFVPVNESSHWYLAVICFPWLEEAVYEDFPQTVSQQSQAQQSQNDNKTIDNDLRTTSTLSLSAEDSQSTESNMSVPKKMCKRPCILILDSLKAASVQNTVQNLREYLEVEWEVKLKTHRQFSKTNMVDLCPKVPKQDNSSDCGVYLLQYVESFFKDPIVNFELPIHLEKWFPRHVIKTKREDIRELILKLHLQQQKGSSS
# [9] = target: T5, Sentrin-specific protease 6 (Homo sapiens, UniProt Q9GZR1); format: functional
# T5 sequence (Q9GZR1 whole entry): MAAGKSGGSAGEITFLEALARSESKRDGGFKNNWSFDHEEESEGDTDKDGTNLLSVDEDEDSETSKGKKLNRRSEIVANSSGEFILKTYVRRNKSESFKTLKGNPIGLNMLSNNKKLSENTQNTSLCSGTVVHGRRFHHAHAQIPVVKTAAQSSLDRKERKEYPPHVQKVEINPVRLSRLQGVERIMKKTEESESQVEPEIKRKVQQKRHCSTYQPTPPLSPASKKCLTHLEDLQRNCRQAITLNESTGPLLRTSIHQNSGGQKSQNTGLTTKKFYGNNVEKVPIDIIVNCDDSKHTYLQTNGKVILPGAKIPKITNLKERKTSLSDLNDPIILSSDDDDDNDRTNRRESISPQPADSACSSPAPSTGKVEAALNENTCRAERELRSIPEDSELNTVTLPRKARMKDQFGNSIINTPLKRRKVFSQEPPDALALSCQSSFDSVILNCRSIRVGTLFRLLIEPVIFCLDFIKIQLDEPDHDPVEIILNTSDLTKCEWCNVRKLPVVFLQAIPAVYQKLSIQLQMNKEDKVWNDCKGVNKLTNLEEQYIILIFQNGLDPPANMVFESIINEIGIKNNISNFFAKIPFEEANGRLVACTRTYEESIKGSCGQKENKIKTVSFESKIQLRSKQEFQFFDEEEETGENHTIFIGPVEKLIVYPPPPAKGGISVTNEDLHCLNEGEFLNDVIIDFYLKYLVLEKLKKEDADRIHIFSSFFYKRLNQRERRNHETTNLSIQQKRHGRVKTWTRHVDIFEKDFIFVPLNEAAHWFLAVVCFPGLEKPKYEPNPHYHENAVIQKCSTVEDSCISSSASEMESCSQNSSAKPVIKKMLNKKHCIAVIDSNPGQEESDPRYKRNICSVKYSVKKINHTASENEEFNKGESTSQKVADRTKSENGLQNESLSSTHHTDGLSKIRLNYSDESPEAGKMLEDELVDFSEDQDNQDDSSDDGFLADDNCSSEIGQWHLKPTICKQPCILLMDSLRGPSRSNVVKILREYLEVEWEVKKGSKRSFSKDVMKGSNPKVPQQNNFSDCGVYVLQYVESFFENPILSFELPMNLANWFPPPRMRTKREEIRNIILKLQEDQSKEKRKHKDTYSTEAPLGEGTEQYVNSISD
# [10] = target: T6, Sentrin-specific protease 8 (Homo sapiens, UniProt Q96LD8); format: functional;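 also: luminescence read-out of SENP8 inhibition, dose-response confirmation following an ultra-high-throughput screen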
# T6 sequence (Q96LD8 whole entry): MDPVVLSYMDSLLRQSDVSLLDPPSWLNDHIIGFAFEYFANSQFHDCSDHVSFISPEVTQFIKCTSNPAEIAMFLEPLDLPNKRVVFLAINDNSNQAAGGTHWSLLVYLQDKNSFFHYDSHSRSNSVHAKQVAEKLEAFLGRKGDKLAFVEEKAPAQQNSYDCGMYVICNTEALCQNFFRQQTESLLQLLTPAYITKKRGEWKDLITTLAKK
# Caspase-3 [11] = target: T3, Caspase-3; test: SAR Analysis of small molecule inhibitors of Sentrin-specific proteases (SENPs) using a Caspase-3 Selectivity assay. [Related pubchem assays (depositor defined):AID2540, AID2599, AID434973, AID489001]; format: functional
# [12] = target: T5, Sentrin-specific protease 6; test: SAR Analysis of small molecule inhibitors of Sentrin-specific protease 6 (SENP6) using a Luminescent assay. [Related pubchem assays (depositor defined):AID2582, AID2599]; format: functional
# [13] = target: T4, Sentrin-specific protease 7; test: SENP7 protease inhibitors, SAR follow-up, biochemical, luminescence (AID 504497); format: functional
# [14] = target: Glucose-6-phosphate 1-dehydrogenase (Homo sapiens, UniProt P11413); test: human G6PD enzyme inhibitors, dose response, selectivity assay for P. falciparum G6PD inhibitor project, biochemical, fluorescence (AID 504792); format: functional
# Sequence of Glucose-6-phosphate 1-dehydrogenase (P11413 whole entry): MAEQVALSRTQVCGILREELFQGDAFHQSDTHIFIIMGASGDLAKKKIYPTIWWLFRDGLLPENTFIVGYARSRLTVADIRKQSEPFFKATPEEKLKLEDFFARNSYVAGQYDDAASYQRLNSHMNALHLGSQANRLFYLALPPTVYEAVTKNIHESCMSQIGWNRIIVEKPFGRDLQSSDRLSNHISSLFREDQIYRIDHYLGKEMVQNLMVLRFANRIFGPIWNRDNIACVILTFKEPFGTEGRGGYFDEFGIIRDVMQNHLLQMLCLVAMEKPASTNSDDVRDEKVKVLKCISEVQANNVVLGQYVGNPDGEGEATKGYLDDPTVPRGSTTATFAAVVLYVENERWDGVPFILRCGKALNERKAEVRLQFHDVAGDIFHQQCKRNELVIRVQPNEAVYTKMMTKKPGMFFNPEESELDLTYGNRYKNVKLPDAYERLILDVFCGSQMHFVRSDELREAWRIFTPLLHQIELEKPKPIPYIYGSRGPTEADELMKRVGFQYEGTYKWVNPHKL
# [15] = target: FAD-linked sulfhydryl oxidase ALR (Homo sapiens, UniProt P55789); test: inhibitors of human ALR sulfhydryl oxidase, dose response, biochemical, H2O2 detection, luminescence, cherry-pick (AID 493248)
# Sequence of FAD-linked sulfhydryl oxidase ALR (P55789 whole entry): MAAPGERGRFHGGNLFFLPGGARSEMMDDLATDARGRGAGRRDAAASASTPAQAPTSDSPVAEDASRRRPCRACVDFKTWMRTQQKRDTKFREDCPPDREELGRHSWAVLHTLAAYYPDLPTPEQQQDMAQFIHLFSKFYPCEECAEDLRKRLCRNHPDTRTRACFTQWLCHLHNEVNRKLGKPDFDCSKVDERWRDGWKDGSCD
compound,measurement,setting,value
O=C(NCc1ccccc1)c1nc(S(=O)(=O)Cc2ccccc2)ncc1Cl,AC50,[1],2.72 µM (active)
same,EC50,Protein RecA,4.88 µM (active)
same,AC50,[2],1.19 µM (active)
same,AC50,[3],20.4 µM (active)
same,AC50,[4],10.8 µM (active)
same,EC50,HEK293 [5],> 59.6 µM (inactive)
same,EC50,HEK293 [6],> 2.21 µM (active)
Fc1ccc(COc2ccc(C(=S)N3CCCC3)cc2)cc1,IC50,Caspase-3 [7],7.14 µM (active)
same,IC50,[8],5.33 µM (active)
same,IC50,[9],8.99 µM (active)
same,IC50,[10],2.46 µM (active)
same,IC50,Caspase-3 [11],1.31 µM (active)
same,IC50,[12],1.68 µM (active)
same,IC50,[13],2.16 µM (active)
COCCNC(=S)Nc1ccc(N2CCOCC2)c(S(=O)(=O)Nc2ccc(Cl)cc2)c1,IC50,[14],> 80 µM (inactive)
COc1cc(/N=C/c2c(CO)cnc(C)c2O)cc(OC)c1OC,IC50,[14],> 80 µM (inactive)
same,AC50,[15],3.63 µM (active)
